Like-named read-outs stand apart in the source and are kept apart here.
What was measured:
[1] = target: SHV-12 (Klebsiella pneumoniae, UniProt P0AD64, E235K/G234S/L31Q); assay: Inhibition of nitrocefin cleavage by purified SHV-12; assay type: biochemical
Procedure, shortened: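 Purified enzyme was preincubated with a range of inhibitor concentrations in reaction buffer for 10 min at room temperature. Nitrocefin was then added and its cleavage followed at 490 nm every 10 sec for 10 min.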

[2] = target: T1, Urokinase (Homo sapiens, UniProt P00749); assay: Serine protease inhibition: urokinase; assay type: biochemical, mammalian; settings: Table 8A, class symbols; read-out: IC50 Urokinase
T1 construct: purchased Calbiochem 672112
Protocol: (§1) The effect of selected BLIs on the enzymatic activity of some common mammalian serine proteases was evaluated.
(§2) 50 μl of the diluted enzyme was mixed with 50 μl of inhibitor at various concentrations and 50 μl of corresponding buffer (Table 7). Reaction mixtures were incubated for 10 min at 37° C. Subsequently, 50 μl of corresponding substrate (Table 7) was added and absorbance or fluorescence was monitored for 30 min on SpectraMax M2 plate reader (Molecular Devices). 4-(2-Aminoethyl)benzenesulfonyl fluoride hydrochloride (AEBSF) and leupeptin were used as positive controls. Rates of reaction were calculated and presented relative to “no treatment” control.

[3] = test system: EC1010 (CMY-6); assay type: cell-based
[4] = target: T2, Chymase (Homo sapiens, UniProt P23946); assay: Serine protease inhibition: chymase; assay type: biochemical, mammalian; settings: Table 8A, class symbols; read-out: IC50 Chymase
T2 construct: purchased Enzo Lifescience BML-SE281
T2 sequence (P23946 22-247): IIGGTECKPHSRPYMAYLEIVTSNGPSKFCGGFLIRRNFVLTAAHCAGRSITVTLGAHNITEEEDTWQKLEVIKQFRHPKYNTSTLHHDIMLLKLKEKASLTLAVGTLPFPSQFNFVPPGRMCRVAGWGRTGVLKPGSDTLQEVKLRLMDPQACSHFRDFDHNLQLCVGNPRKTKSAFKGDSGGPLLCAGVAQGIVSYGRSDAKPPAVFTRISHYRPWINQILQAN
Procedure, shortened: (§3)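 Rates calculated from absorbance or fluorescence monitored over 30 min after substrate addition are reported as a fraction of the no-treatment control.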

[5] = test system: KP1009 (CTX-M-15); assay: Potentiation of tigemonam, strain KP1009; settings: minimum BLI concentration inhibiting growth with 4 μg/mL tigemonam
[6] = test system: ec308 (SHV-5); assay: Potentiation of tigemonam, strain ec308; assay type: cell-based; settings: minimum BLI concentration inhibiting growth with 4 μg/mL tigemonam
[7] = target: T3, Neutrophil elastase (Homo sapiens, UniProt P08246); assay: Serine protease inhibition: neutrophil elastase; assay type: biochemical, mammalian; settings: Table 8B; read-out: IC50 Neutrophil elastase
T3 construct: purchased Calbiochem 324681
T3 sequence (P08246 30-267): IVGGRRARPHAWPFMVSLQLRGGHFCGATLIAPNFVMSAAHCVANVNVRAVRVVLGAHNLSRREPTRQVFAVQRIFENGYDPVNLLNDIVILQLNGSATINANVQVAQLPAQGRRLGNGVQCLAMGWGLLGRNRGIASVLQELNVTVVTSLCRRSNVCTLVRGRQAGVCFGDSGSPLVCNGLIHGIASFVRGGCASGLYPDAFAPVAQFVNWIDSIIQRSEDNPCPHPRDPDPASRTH
Procedure, shortened: as §3

[8] = target: T4, Dipeptidyl peptidase 7 (DPP7) (Homo sapiens, UniProt Q9UHL4); assay: Serine protease inhibition: DPP7; assay type: biochemical, mammalian; settings: Table 8B; read-out: IC50 DPP7
T4 construct: purchased R&D Systems 3438-SE
Protocol: as §1, §2

[9] = target: T5, CathepsinA (Homo sapiens, UniProt P10619); assay: Serine protease inhibition: cathepsin A; assay type: biochemical, mammalian; settings: Table 8B; read-out: IC50 CathepsinA
T5 construct: purchased R&D Systems 1049-SE
T5 sequence (P10619 29-480): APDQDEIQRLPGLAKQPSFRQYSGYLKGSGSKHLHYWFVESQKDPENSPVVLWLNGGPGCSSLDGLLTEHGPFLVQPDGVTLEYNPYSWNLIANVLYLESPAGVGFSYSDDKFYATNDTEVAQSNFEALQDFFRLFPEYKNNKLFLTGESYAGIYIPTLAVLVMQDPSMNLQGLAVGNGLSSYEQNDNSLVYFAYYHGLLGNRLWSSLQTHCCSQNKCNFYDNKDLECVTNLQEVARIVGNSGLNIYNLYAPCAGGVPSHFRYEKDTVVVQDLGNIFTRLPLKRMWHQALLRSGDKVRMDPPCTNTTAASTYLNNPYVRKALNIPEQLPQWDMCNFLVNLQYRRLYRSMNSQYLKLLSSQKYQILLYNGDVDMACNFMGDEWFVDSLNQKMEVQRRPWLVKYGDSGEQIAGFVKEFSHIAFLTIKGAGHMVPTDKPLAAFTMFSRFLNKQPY
Procedure, shortened: as §3

[10] = test system: KP1004 (K-2); assay: Potentiation of aztreonam, strain KP1004; assay type: cell-based; settings: minimum BLI concentration inhibiting growth with 4 μg/mL aztreonam
[11] = test system: ec308 (SHV-5); assay: Potentiation of aztreonam, strain ec308; assay type: cell-based; settings: minimum BLI concentration inhibiting growth with 4 μg/mL aztreonam
[12] = target: T6, Dipeptidyl peptidase 8 (DPP8) (Homo sapiens, UniProt Q6V1X1); assay: Serine protease inhibition: DPP8; assay type: biochemical, mammalian; settings: Table 8B; read-out: IC50 DPP8
T6 construct: purchased BPS Bioscience 80080
Protocol: as §1, §2

[13] = target: T7, Chymotrypsin (Bos taurus, UniProt P00766); assay: Serine protease inhibition: chymotrypsin; assay type: biochemical, mammalian; settings: Table 8A, class symbols; read-out: IC50 Chymotrypsin
T7 construct: purchased Calbiochem 230832
Protocol: as §1, §2

[14] = target: T8, Plasmin (Homo sapiens, UniProt P00747); assay: Serine protease inhibition: plasmin; assay type: biochemical, mammalian; settings: Table 8A, class symbols; read-out: IC50 Plasmin
T8 construct: Plasmin; MPBio; 19419890; purchased MPBio 19419890
Protocol: as §1, §2

[15] = test system: PAM1032/KPC-2; assay: Biapenem potentiation in PAM1032/KPC-2 (MexAB-OprM overexpressed); assay type: cell-based, Pseudomonas aeruginosa
Protocol: Efflux of BLIs from Pseudomonas aeruginosa by the MexAB-OprM efflux pump was also evaluated. […] Due to expression of KPC-2 both strains became resistant to biapenem. […] Potency of BLIs to potentiate biapenem in these strains was determined. […] The ratio of MPC64 values for each BLI in PAM1032/KPC-2 (efflux proficient) and PAM1154/KPC-2 (efflux deficient) was determined to generate the Efflux Index (EI).

[16] = test system: KP1005 (CTX-M-14); assay: Potentiation of aztreonam, strain KP1005; assay type: cell-based
[17] = nitrocefin reporter substrate, purified enzyme, read-out: Ki (SHV-12, NCF)
[18] = BLI potency to decrease biapenem MIC 64-fold, 32 to 0.5 μg/ml, efflux proficient strain

T6 sequence (Q6V1X1 whole entry): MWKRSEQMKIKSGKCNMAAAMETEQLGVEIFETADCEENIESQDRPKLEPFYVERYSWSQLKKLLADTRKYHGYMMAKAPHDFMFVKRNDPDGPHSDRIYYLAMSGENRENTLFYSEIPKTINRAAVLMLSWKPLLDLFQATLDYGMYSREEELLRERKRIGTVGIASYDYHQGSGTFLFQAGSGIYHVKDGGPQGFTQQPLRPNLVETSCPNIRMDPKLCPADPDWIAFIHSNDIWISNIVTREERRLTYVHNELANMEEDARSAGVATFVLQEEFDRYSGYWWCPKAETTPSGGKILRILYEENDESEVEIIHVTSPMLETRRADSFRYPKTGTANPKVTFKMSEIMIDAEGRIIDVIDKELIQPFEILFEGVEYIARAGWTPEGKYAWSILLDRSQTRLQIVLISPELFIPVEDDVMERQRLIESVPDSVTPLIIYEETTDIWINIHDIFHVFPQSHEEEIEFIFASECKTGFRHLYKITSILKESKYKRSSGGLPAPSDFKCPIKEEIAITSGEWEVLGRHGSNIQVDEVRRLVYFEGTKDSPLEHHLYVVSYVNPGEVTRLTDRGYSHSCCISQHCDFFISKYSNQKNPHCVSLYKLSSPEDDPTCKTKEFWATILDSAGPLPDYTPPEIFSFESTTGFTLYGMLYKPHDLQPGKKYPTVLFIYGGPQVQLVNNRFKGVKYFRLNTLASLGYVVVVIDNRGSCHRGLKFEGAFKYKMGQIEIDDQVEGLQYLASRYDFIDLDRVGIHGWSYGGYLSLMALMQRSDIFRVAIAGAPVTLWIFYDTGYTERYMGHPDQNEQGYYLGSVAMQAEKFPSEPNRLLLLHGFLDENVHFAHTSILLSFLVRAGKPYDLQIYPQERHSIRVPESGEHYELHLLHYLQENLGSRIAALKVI
T8 sequence (P00747 581-810 limits assumed, species assumed): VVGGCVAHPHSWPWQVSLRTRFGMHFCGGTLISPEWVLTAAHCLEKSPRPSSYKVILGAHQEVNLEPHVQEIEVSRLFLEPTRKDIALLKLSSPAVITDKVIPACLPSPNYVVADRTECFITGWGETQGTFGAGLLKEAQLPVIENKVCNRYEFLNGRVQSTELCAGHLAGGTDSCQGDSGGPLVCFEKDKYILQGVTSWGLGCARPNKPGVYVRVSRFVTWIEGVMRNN
T8 sequence (P00747 97-580 partner limits assumed, species assumed): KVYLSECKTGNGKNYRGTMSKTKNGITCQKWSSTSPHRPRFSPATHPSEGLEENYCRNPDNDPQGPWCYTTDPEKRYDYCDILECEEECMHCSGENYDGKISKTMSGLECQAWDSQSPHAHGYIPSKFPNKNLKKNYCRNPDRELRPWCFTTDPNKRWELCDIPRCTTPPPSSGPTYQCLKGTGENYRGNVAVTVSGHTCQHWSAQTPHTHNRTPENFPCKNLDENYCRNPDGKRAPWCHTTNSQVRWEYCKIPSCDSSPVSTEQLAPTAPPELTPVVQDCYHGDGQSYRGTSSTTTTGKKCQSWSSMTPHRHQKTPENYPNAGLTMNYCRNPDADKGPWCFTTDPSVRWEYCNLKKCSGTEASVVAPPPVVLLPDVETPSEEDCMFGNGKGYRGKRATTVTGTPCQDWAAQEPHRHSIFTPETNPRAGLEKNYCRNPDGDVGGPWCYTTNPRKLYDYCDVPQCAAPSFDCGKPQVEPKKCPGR
Chain of SHV-12 (P0AD64 22-286 L31Q/G234S/E235K): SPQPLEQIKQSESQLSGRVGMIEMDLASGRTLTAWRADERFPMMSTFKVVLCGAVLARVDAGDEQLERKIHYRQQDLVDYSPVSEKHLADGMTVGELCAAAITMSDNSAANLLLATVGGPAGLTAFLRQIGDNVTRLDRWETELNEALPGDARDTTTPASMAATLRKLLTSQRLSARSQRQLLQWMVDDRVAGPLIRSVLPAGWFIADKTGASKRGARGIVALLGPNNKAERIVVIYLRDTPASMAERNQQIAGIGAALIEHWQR

SMILES	Ki [1, 17]	IC50 [2]	TIG MPC4 CMY-6 EC1010 [3]	IC50 [4]	TIG MPC4 CTX-M-15 KP1009 [5]	TIG MPC4 SHV-5 ec308 [6]	IC50 [7]	IC50 [8]	IC50 [9]	AZT MPC4 K-2 KP1004 [10]	AZT MPC4 SHV-5 ec308 [11]	IC50 [12]	IC50 [13]	IC50 [14]	PAM1032/KPC-2 Biapenem MPC64 [15, 18]	AZT MPC4 CTX-M-14 KP1005 [16]	PAM1032/KPC-2 Biapenem MPC64 [15]	Ki [1]
O=C(CSC(F)F)N[C@H]1Cc2cccc(C(=O)O)c2OB1O [Compound 3, (R)-3-(2-(difluoromethylthio)acetamido)-2-hydroxy-3,4-dihydro-2H-benzo[e][1,2]oxaborinine-8-carboxylic acid]	< 0.001 µM	> 800 µM	X (key: X = MIC of less than 1 μg/mL; Y = MIC of 1 μg/mL to 10 μg/mL; Z = MIC of greater than 10 μg/mL)	300 to 800 µM	X (X = MIC of less than 1 μg/mL)	X (X = MIC of less than 1 μg/mL)	15 to 500 µM	> 500 µM	< 15 µM	Y (Y = MIC of 1 μg/mL to 10 μg/mL)	X (X = MIC of less than 1 μg/mL)	> 500 µM	> 800 µM	> 800 µM	Z (Z Greater than 40)	X (key: X = MIC of less than 1 μg/mL; Y = MIC of 1 μg/mL to 10 μg/mL; Z = MIC of greater than 10 μg/mL)		
[N-]=[N+]=NCC(=O)N[C@H]1Cc2cccc(C(=O)O)c2OB1O [Compound 8, (R)-3-(2-azidoacetamido)-2-hydroxy-3,4-dihydro-2H-benzo[e][1,2]oxaborinine-8-carboxylic acid]	< 0.001 µM	> 800 µM	X (key: X = MIC of less than 1 μg/mL; Y = MIC of 1 μg/mL to 10 μg/mL; Z = MIC of greater than 10 μg/mL)	> 800 µM	X (X = MIC of less than 1 μg/mL)	Y (Y = MIC of 1 μg/mL to 10 μg/mL)	> 500 µM	> 500 µM	15 to 500 µM	X (X = MIC of less than 1 μg/mL)	X (X = MIC of less than 1 μg/mL)	> 500 µM	> 800 µM	> 800 µM	Y (Y = 10 to 40)	X (key: X = MIC of less than 1 μg/mL; Y = MIC of 1 μg/mL to 10 μg/mL; Z = MIC of greater than 10 μg/mL)		
Nc1nnc(SCC(=O)N[C@H]2Cc3cccc(C(=O)O)c3OB2O)s1 [Compound 5, (R)-3-(2-(5-amino-1,3,4-thiadiazol-2-ylthio)acetamido)-2-hydroxy-3,4-dihydro-2H-benzo[e][1,2]oxaborinine-8-carboxylic acid]		> 800 µM	X (key: X = MIC of less than 1 μg/mL; Y = MIC of 1 μg/mL to 10 μg/mL; Z = MIC of greater than 10 μg/mL)	300 to 800 µM	X (X = MIC of less than 1 μg/mL)	Y (Y = MIC of 1 μg/mL to 10 μg/mL)	> 500 µM	> 500 µM	15 to 500 µM	Y (Y = MIC of 1 μg/mL to 10 μg/mL)	X (X = MIC of less than 1 μg/mL)	15 to 500 µM	> 800 µM	> 800 µM	Y (Y = 10 to 40)	X (key: X = MIC of less than 1 μg/mL; Y = MIC of 1 μg/mL to 10 μg/mL; Z = MIC of greater than 10 μg/mL)		
O=C(CSc1nncs1)N[C@H]1Cc2cccc(C(=O)O)c2OB1O [Compound 7, (R)-3-(2-(1,3,4-thiadiazol-2-ylthio)acetamido)-2-hydroxy-3,4-dihydro-2H-benzo[e][1,2]oxaborinine-8-carboxylic acid]	< 0.001 µM	> 800 µM	X (key: X = MIC of less than 1 μg/mL; Y = MIC of 1 μg/mL to 10 μg/mL; Z = MIC of greater than 10 μg/mL)	> 800 µM	X (X = MIC of less than 1 μg/mL)	X (X = MIC of less than 1 μg/mL)	> 500 µM	> 500 µM	15 to 500 µM	Y (Y = MIC of 1 μg/mL to 10 μg/mL)	X (X = MIC of less than 1 μg/mL)	15 to 500 µM	> 800 µM	> 800 µM	Z (Z Greater than 40)	X (key: X = MIC of less than 1 μg/mL; Y = MIC of 1 μg/mL to 10 μg/mL; Z = MIC of greater than 10 μg/mL)		
O=CN[C@H]1Cc2cccc(C(=O)O)c2OB1O [Compound 4, (R)-3-formamido-2-hydroxy-3,4-dihydro-2H-benzo[e][1,2]oxaborinine-8-carboxylic acid]	0.001 to 0.01 µM	> 800 µM	X (key: X = MIC of less than 1 μg/mL; Y = MIC of 1 μg/mL to 10 μg/mL; Z = MIC of greater than 10 μg/mL)	> 800 µM	Y (Y = MIC of 1 μg/mL to 10 μg/mL)	Y (Y = MIC of 1 μg/mL to 10 μg/mL)	> 500 µM	> 500 µM	> 500 µM	X (X = MIC of less than 1 μg/mL)	Y (Y = MIC of 1 μg/mL to 10 μg/mL)	> 500 µM	> 800 µM	> 800 µM		Y (key: X = MIC of less than 1 μg/mL; Y = MIC of 1 μg/mL to 10 μg/mL; Z = MIC of greater than 10 μg/mL)	X (key: X = Less than 10; Y = 10 to 40; Z Greater than 40)	
CSC(=O)N[C@H]1Cc2cccc(C(=O)O)c2OB1O [Compound 11, (R)-2-hydroxy-3-(methylthiocarbonylamino)-3,4-dihydro-2H-benzo[e][1,2]oxaborinine-8-carboxylic acid]		> 800 µM	X (key: X = MIC of less than 1 μg/mL; Y = MIC of 1 μg/mL to 10 μg/mL; Z = MIC of greater than 10 μg/mL)	> 800 µM	Y (Y = MIC of 1 μg/mL to 10 μg/mL)	Y (Y = MIC of 1 μg/mL to 10 μg/mL)	> 500 µM	> 500 µM	15 to 500 µM	Y (Y = MIC of 1 μg/mL to 10 μg/mL)	X (X = MIC of less than 1 μg/mL)	> 500 µM	> 800 µM	> 800 µM	Z (Z Greater than 40)	Y (key: X = MIC of less than 1 μg/mL; Y = MIC of 1 μg/mL to 10 μg/mL; Z = MIC of greater than 10 μg/mL)		< 0.001 µM

From patent US9101638B2, “Boronic acid derivatives and therapeutic uses thereof” (Rempex Pharmaceuticals, Inc., priority 2013, dated 2015)
